According to US4477443A, “Tylosin derivatives, their preparation and pharmaceutical compositions containing them” (Zaidan Hojin Biselbutsu Kagaku Kenkyu Kai (Microbial …, priority 1981, dated 1984):
In brackets after ≈: the same amount, converted by molar mass. Where two headings read alike, the source gives them in different places.

Experiments:
Format in all cases: cell-based
Staph. aureus KC-11 = test: antimicrobial activity (MIC), Table II; details: Staphylococcus aureus, KC11; Staph. aureus KC-11; read-out: MIC
B. subtilis ATCC 6633 = test: antimicrobial activity (MIC), Table II; details: Bacillus subtilis, ATCC6633; B. subtilis ATCC 6633; read-out: MIC
B. cereus = test: antimicrobial activity (MIC), Table II; details: Bacillus cereus; B. cereus; read-out: MIC
Staph. aureus 226 = test: antimicrobial activity (MIC), Table II; details: Staphylococcus aureus; Staph. aureus 226; read-out: MIC
Staph. aureus ATCC 6538P = test: antimicrobial activity (MIC), Table II; details: Staphylococcus aureus, ATCC6538P; Staph. aureus ATCC 6538P; read-out: MIC
[1] = tested on: Staph. epidermidis IID 866; test: antimicrobial activity (MIC), Table II; details: Staphylococcus epidermidis, IID866
E. coli K-12 R-5 = test: antimicrobial activity (MIC), Table I; details: Escherichia coli, K12R5
B. subtilis NRRL B-558 = test: antimicrobial activity (MIC), Table I; details: Bacillus subtilis, NRRLB558
E. coli NIHJ = test: antimicrobial activity (MIC), Table I; details: Escherichia coli
Sarcina lutea PCI 1001 = test: antimicrobial activity (MIC), Table I; details: Micrococcus luteus, PCI1001
Staph. aureus MS 9861 = test: antimicrobial activity (MIC), Table I; details: Staphylococcus aureus, MS9861
Staph. aureus 193 = test: antimicrobial activity (MIC), Table I; details: Staphylococcus aureus
Kleb. pneumoniae PCI 602 = test: antimicrobial activity (MIC), Table I; details: Klebsiella pneumoniae, PCI602
Staph. aureus 209 P = test: antimicrobial activity (MIC), Table I; details: Staphylococcus aureus
[2] = tested on: Shigella dysenteriae JS 11910; test: antimicrobial activity (MIC), Table I; details: JS11910
E. coli K-12 = test: antimicrobial activity (MIC), Table I; details: Escherichia coli, K12
Sal. enteritidis 1891 = test: antimicrobial activity (MIC), Table I; details: Salmonella enterica
Coryn. bovis 1810 = test: antimicrobial activity (MIC), Table I; details: Corynebacterium bovis
[3] = E. coli K-12 R-5, read-out: MIC
[4] = B. subtilis NRRL B-558, read-out: MIC
[5] = Sarcina lutea PCI 1001, read-out: MIC
[6] = Staph. aureus MS 9861, read-out: MIC
[7] = Staph. aureus 193, read-out: MIC
[8] = Kleb. pneumoniae PCI 602, read-out: MIC
[9] = Staph. aureus 209 P, read-out: MIC
[10] = Sal. enteritidis 1891, read-out: MIC
[11] = Coryn. bovis 1810, read-out: MIC

| Structure (SMILES) | MIC (Staph. aureus KC-11) | MIC (B. subtilis ATCC 6633) | MIC (B. cereus) | MIC (Staph. aureus 226) | MIC (Staph. aureus ATCC 6538P) | MIC [1] | MIC (E. coli K-12 R-5; [3]) | MIC (B. subtilis NRRL B-558; [4]) | MIC (E. coli NIHJ; E. coli NIHJ, read-out: MIC) | MIC (Sarcina lutea PCI 1001; [5]) | MIC (Staph. aureus MS 9861; [6]) | MIC (Staph. aureus 193; [7]) | MIC (Kleb. pneumoniae PCI 602; [8]) | MIC (Staph. aureus 209 P; [9]) | MIC [2] | MIC (E. coli K-12; E. coli K-12, read-out: MIC) | MIC (Sal. enteritidis 1891; [10]) | MIC (Coryn. bovis 1810; [11]) | also measured |
| --- | --- | --- | --- | --- | --- | --- | --- | --- | --- | --- | --- | --- | --- | --- | --- | --- | --- | --- | --- |
| CCC1OC(=O)CC(O)C(C)C(OC2OC(C)C(O)C(N(C)C)C2O)C(CC=O)CC(C)C(=O)C=CC(C)=CC1CN(CC)C(=O)c1ccco1 (stereo not drawn) [Example 43, 23-deoxy-23-N-(2-furoyl)ethylaminomycaminosyl tylonolide] | 0.78 µg/mL (≈ 1.09 µM) | 0.78 µg/mL (≈ 1.09 µM) | 0.39 µg/mL (≈ 0.543 µM) | 0.78 µg/mL (≈ 1.09 µM) | 0.78 µg/mL (≈ 1.09 µM) | 0.78 µg/mL (≈ 1.09 µM) |  |  |  |  |  |  |  |  |  |  |  |  |  |
| CCC1OC(=O)CC(O)C(C)C(OC2OC(C)CC(N(C)C)C2O)C(CC=O)CC(C)C(=O)C=CC(C)=CC1CN(CC)C(=O)c1ccco1 (stereo not drawn) [Example 45, 23,4'-dideoxy-23-N-(2-furoyl)ethylaminomycaminosyl tylonolide] | 0.78 µg/mL (≈ 1.11 µM) | 0.39 µg/mL (≈ 0.555 µM) | 0.39 µg/mL (≈ 0.555 µM) | 0.78 µg/mL (≈ 1.11 µM) | 0.78 µg/mL (≈ 1.11 µM) | 0.39 µg/mL (≈ 0.555 µM) |  |  |  |  |  |  |  |  |  |  |  |  |  |
| CCC1OC(=O)CC(O)C(C)C(OC2OC(C)CC(N(C)C)C2O)C(CC=O)CC(C)C(=O)C=CC(C)=CC1CN(CC)C(=O)c1cccnc1 (stereo not drawn) [Example 46, 23,4'-dideoxy-23-N-nicotinoylethylaminomycaminosyl tylonolide] | 1.56 µg/mL (≈ 2.19 µM) | 1.56 µg/mL (≈ 2.19 µM) | 0.39 µg/mL (≈ 0.546 µM) | 1.56 µg/mL (≈ 2.19 µM) | 1.56 µg/mL (≈ 2.19 µM) | 0.78 µg/mL (≈ 1.09 µM) |  |  |  |  |  |  |  |  |  |  |  |  |  |
| CCC1OC(=O)CC(O)C(C)C(OC2OC(C)CC(N(C)C)C2O)C(CC=O)CC(C)C(=O)C=CC(C)=CC1CN(CC)C(C)=O (stereo not drawn) [Example 47, 23-N-acetylethylamino-23,4'-dideoxymycaminosyl tylonolide] | 0.78 µg/mL (≈ 1.2 µM) | 0.78 µg/mL (≈ 1.2 µM) | 0.39 µg/mL (≈ 0.599 µM) | 1.56 µg/mL (≈ 2.4 µM) | 0.78 µg/mL (≈ 1.2 µM) | 0.78 µg/mL (≈ 1.2 µM) |  |  |  |  |  |  |  |  |  |  |  |  |  |
| CCC1OC(=O)CC(O)C(C)C(OC2OC(C)CC(N(C)C)C2O)C(CC=O)CC(C)C(=O)C=CC(C)=CC1CNC(=O)c1ccccc1 (stereo not drawn) [Example 76, 23-Benzoylamino-23,4'-dideoxymycaminosyl tylonolide] |  |  |  |  |  |  | 6.25 µg/mL (≈ 9.13 µM) | 0.78 µg/mL (≈ 1.14 µM) | 3.12 µg/mL (≈ 4.56 µM) | < 0.2 µg/mL | 0.78 µg/mL (≈ 1.14 µM) | 0.39 µg/mL (≈ 0.569 µM) | 3.12 µg/mL (≈ 4.56 µM) | 0.39 µg/mL (≈ 0.569 µM) | 1.56 µg/mL (≈ 2.28 µM) | 6.25 µg/mL (≈ 9.13 µM) | 3.12 µg/mL (≈ 4.56 µM) | < 0.2 µg/mL |  |
| CCOC(=O)NCC1C=C(C)C=CC(=O)C(C)CC(CC=O)C(OC2OC(C)CC(N(C)C)C2O)C(C)C(O)CC(=O)OC1CC (stereo not drawn) [Example 78, 23,4'-Dideoxy-23-ethoxycarbonylaminomycaminosyl tylonolide] |  |  |  |  |  |  | 6.25 µg/mL (≈ 9.57 µM) | 0.39 µg/mL (≈ 0.597 µM) | 3.12 µg/mL (≈ 4.78 µM) | < 0.2 µg/mL | 0.39 µg/mL (≈ 0.597 µM) | < 0.2 µg/mL | 3.12 µg/mL (≈ 4.78 µM) | < 0.2 µg/mL | 1.56 µg/mL (≈ 2.39 µM) | 12.5 µg/mL (≈ 19.1 µM) | 3.12 µg/mL (≈ 4.78 µM) | < 0.2 µg/mL |  |
| CCC1OC(=O)CC(O)C(C)C(OC2OC(C)CC(N(C)C)C2O)C(CC=O)CC(C)C(=O)C=CC(C)=CC1CNC(=O)Oc1ccccc1 (stereo not drawn) [Example 80, 23,4'-Dideoxy-23-phenoxycarbonylaminomycaminosyl tylonolide] |  |  |  |  |  |  |  |  |  |  |  |  |  |  | 0.78 µg/mL (≈ 1.11 µM) |  |  |  | MIC (E. coli K-12 R-5): 6.25 µg/mL (≈ 8.92 µM); MIC (B. subtilis NRRL B-558): 0.39 µg/mL (≈ 0.556 µM); MIC (E. coli NIHJ): 3.12 µg/mL (≈ 4.45 µM); MIC (Sarcina lutea PCI 1001): < 0.2 µg/mL; MIC (Staph. aureus MS 9861): < 0.2 µg/mL; MIC (Staph. aureus 193; 193): < 0.2 µg/mL; MIC (Kleb. pneumoniae PCI 602): 1.56 µg/mL (≈ 2.23 µM); MIC (Staph. aureus 209 P; 209P): < 0.2 µg/mL; MIC (E. coli K-12): 6.25 µg/mL (≈ 8.92 µM); MIC (Sal. enteritidis 1891; ENTERITIDIS): 1.56 µg/mL (≈ 2.23 µM); MIC (Coryn. bovis 1810; 1810): < 0.2 µg/mL |
| CCC1OC(=O)CC(O)C(C)C(OC2OC(C)CC(N(C)C)C2O)C(CC=O)CC(C)C(=O)C=CC(C)=CC1CN(CC)C(=O)OC (stereo not drawn) [Example 83, 23,4'-Dideoxy-23-N-ethylmethoxycarbonylaminomycaminosyl tylonolide] |  |  |  |  |  |  | 12.5 µg/mL (≈ 18.7 µM) | < 0.2 µg/mL | 6.25 µg/mL (≈ 9.37 µM) | < 0.2 µg/mL | 0.39 µg/mL (≈ 0.585 µM) | < 0.2 µg/mL | 12.5 µg/mL (≈ 18.7 µM) | < 0.2 µg/mL | 1.56 µg/mL (≈ 2.34 µM) | 12.5 µg/mL (≈ 18.7 µM) | 6.25 µg/mL (≈ 9.37 µM) | < 0.2 µg/mL |  |
| CCC1OC(=O)CC(O)C(C)C(OC2OC(C)CC(N(C)C)C2O)C(CC=O)CC(C)C(=O)C=CC(C)=CC1CN(CC)C(=O)Oc1ccccc1 (stereo not drawn) [Example 85, 23,4'-Dideoxy-23-N-ethylphenoxycarbonylaminomycaminosyl tylonolide] |  |  |  |  |  |  |  |  |  |  |  |  |  |  | 0.78 µg/mL (≈ 1.07 µM) |  |  |  | MIC (E. coli K-12 R-5): 12.5 µg/mL (≈ 17.1 µM); MIC (B. subtilis NRRL B-558): < 0.2 µg/mL; MIC (E. coli NIHJ): 12.5 µg/mL (≈ 17.1 µM); MIC (Sarcina lutea PCI 1001): < 0.2 µg/mL; MIC (Staph. aureus MS 9861): 0.39 µg/mL (≈ 0.535 µM); MIC (Staph. aureus 193; 193): 0.39 µg/mL (≈ 0.535 µM); MIC (Kleb. pneumoniae PCI 602): 3.12 µg/mL (≈ 4.28 µM); MIC (Staph. aureus 209 P; 209P): < 0.2 µg/mL; MIC (E. coli K-12): 12.5 µg/mL (≈ 17.1 µM); MIC (Sal. enteritidis 1891; ENTERITIDIS): 12.5 µg/mL (≈ 17.1 µM); MIC (Coryn. bovis 1810; 1810): < 0.2 µg/mL |
